Results taken from the supplement of paper PMC10307832.

Tests used:
Experiment in all cases: relative viability (nuclei count vs DMSO), 5 days (fraction); higher = more cells survive
Seliciclib + Decitabine = compound: CC[C@H](CO)Nc1nc(NCc2ccccc2)c2ncn(C(C)C)c2n1 [Seliciclib] + Nc1ncn([C@H]2C[C@H](O)[C@@H](CO)O2)c(=O)n1 [Decitabine] (partner 2 µM)
Method in brief: (§1)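 Lung cancer cell lines in 1536-well plates got either a single drug or a fixed anchor-drug dose together with five library-drug doses (not always all listed) in √10 steps, by pin tool, on the day after seeding. Nuclei were counted after 5 days, and relative viability is the treated-to-vehicle ratio of nuclei counts. Values are medians of duplicate plates.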

Seliciclib + Crizotinib = compound: CC[C@H](CO)Nc1nc(NCc2ccccc2)c2ncn(C(C)C)c2n1 [Seliciclib] + C[C@@H](Oc1cc(-c2cnn(C3CCNCC3)c2)cnc1N)c1c(Cl)ccc(F)c1Cl [Crizotinib] (partner 1 µM)
Method in brief: as §1

Seliciclib + Phenformin = compound: CC[C@H](CO)Nc1nc(NCc2ccccc2)c2ncn(C(C)C)c2n1 [Seliciclib] + N=C(N)NC(=N)NCCc1ccccc1 [Phenformin] (partner 250 µM)
Method in brief: as §1

Seliciclib + Navitoclax = compound: CC[C@H](CO)Nc1nc(NCc2ccccc2)c2ncn(C(C)C)c2n1 [Seliciclib] + CC1(C)CCC(c2ccc(Cl)cc2)=C(CN2CCN(c3ccc(C(=O)NS(=O)(=O)c4ccc(N[C@H](CCN5CCOCC5)CSc5ccccc5)c(S(=O)(=O)C(F)(F)F)c4)cc3)CC2)C1 [Navitoclax] (partner 0.5 µM)
Method in brief: as §1

Cell Line	relative viability (Seliciclib + Decitabine; first compound 0.08 µM)	relative viability (Seliciclib + Decitabine; first compound 0.253 µM)	relative viability (Seliciclib + Decitabine; first compound 0.8 µM)	relative viability (Seliciclib + Decitabine; first compound 2.53 µM)	relative viability (Seliciclib + Decitabine; first compound 8 µM)	relative viability (Seliciclib + Crizotinib; first compound 0.08 µM)	relative viability (Seliciclib + Crizotinib; first compound 0.253 µM)	relative viability (Seliciclib + Crizotinib; first compound 0.8 µM)	relative viability (Seliciclib + Crizotinib; first compound 2.53 µM)	relative viability (Seliciclib + Crizotinib; first compound 8 µM)	relative viability (Seliciclib + Phenformin; first compound 0.08 µM)	relative viability (Seliciclib + Phenformin; first compound 0.253 µM)	relative viability (Seliciclib + Phenformin; first compound 0.8 µM)	relative viability (Seliciclib + Phenformin; first compound 2.53 µM)	relative viability (Seliciclib + Phenformin; first compound 8 µM)	relative viability (Seliciclib + Navitoclax; first compound 0.08 µM)	relative viability (Seliciclib + Navitoclax; first compound 0.253 µM)	relative viability (Seliciclib + Navitoclax; first compound 0.8 µM)	relative viability (Seliciclib + Navitoclax; first compound 2.53 µM)	relative viability (Seliciclib + Navitoclax; first compound 8 µM)
HCC-366	0.357	0.297	0.333	0.414	0.297	0.477	0.418	0.497	0.946	0.354	0.618	0.716	0.571	0.62	0.506	1.01	0.699	1.03	1.17	0.947
HCC-827	0.337	0.36	0.327	0.287	0.273	0.909	0.914	0.911	0.931	0.839	0.4	0.422	0.402	0.435	0.351	1	1.03	1.01	0.976	0.953
HOP-62	0.199	0.177	0.223	0.235	0.253	1.02	0.981	0.976	0.781	0.898	0.665	0.699	0.75	0.713	0.576	1.01	1.1	0.909	1.12	0.926
LC-2-ad	0.752	0.95	0.717	0.812	0.721	0.442	0.456	0.479	0.46	0.404	0.552	0.579	0.593	0.368	0.514	0.419	0.505	0.379	0.494	0.271
LCLC-97TM1	0.237	0.187	0.189	0.231	0.201	0.295	0.366	0.463		0.252	0.467	0.354	0.493	0.138	0.381	0.324	0.462	0.414		0.223
LK-2	0.359	0.276	0.309	0.166	0.263	0.246	0.227	0.205	0.227	0.249	0.475	0.415	0.358	0.243	0.274	0.797	0.648	0.823	0.643	0.536
LOU-NH91		0.795	0.784	0.785	0.693	0.721	0.743	0.678	0.673	0.685	0.609	0.666	0.671	0.589	0.552	0.591	0.61	0.591	0.695	0.482
LU99A	0.914	0.777	0.978	0.837	0.739	0.477	0.544	0.52	0.422	0.4	0.898	0.937	0.817	0.705	0.714	0.9	0.671	0.69	0.759	0.711
LXF-289	0.348	0.299	0.403	0.39	0.39	0.82	0.871	0.779	0.835	0.638	0.52	0.505	0.501	0.507	0.496	0.937	1.03	0.795	0.934	0.914
NCI-H23	0.278	0.293	0.316	0.288	0.268	0.454	0.427	0.432	0.42	0.48	0.83	0.809	0.784	0.672	0.603	0.813	0.677	0.842	0.624	0.565
NCI-H322M	0.782	0.715	0.715	0.668	0.614	0.85	1.06	0.839	1.06	0.554	0.861	0.967	0.693	0.673	0.536	1.22	1.34	1.12	1.37	1.24
NCI-H441	0.262	0.265	0.258	0.201	0.256	0.896	0.631	0.833	0.66	0.519	0.836	0.804	0.805	0.459	0.632	0.603	0.365	0.526	0.566	0.59
NCI-H460	0.455	0.57	0.446	0.591	0.388	0.787	0.821	0.837	1.36	0.722	0.55	0.526	0.515	0.567	0.469	1.1	1.13	1.03	1.1	0.801
NCI-H520	0.522	0.486	0.537	0.632	0.643	0.85	0.552	0.638	0.921	0.589	0.61		0.571	0.634	0.38	0.96	0.847	0.997	1.2	1.18
NCI-H596	0.951		0.961	1.03	0.828	0.959	0.759	0.981	1.05	0.988	0.66		0.83	0.784	0.595	1	0.567	0.891	1.16	0.826
NCI-H647	0.314	0.235	0.562	0.453	0.452	1.07	1.01	1.04	1.29	0.852	0.515		0.537	0.603	0.409	1.02	1	1.06	1.12	0.878
NCI-H727	0.874	0.88	0.82	0.441	0.861	0.813	0.882	0.777	0.829	0.823	0.562	0.488	0.561	0.373	0.472	0.509	0.494	0.407	0.43	0.309
